Where two headings read alike, the source gives them in different places.
What was measured:
[1] = test system: Key Broadleaf Weed and Crop Species; assay: Post-Emergent Test II: postemergent herbicidal activity, visual rating after 14 d (Table 7); type: in vivo; conditions: post-emergence, 336 h; for pest or weed control at 35 g/ha: 35 g ai/ha; for pest or weed control at 70 g/ha: 70 g ai/ha; for pest or weed control at 140 g/ha: 140 g ai/ha
In short: (§1)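 Greenhouse plants at first or second true leaf stage sprayed with compound in acetone/DMSO-based spray solution with crop oil concentrate and Triton X-155 at 187 L/ha, tested at highest rate and ½× to 1/16× dilutions; solvent blank controls. Injury rated visually 0–100% versus untreated plants after 14 d.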

[2] = test system: Key Grass and Sedge Weeds as well as Grass Crops; assay: Post-Emergent Test II: postemergent herbicidal activity, visual rating after 14 d (Table 8); type: in vivo; conditions: post-emergence, 336 h; for pest or weed control at 35 g/ha: 35 g ai/ha; for pest or weed control at 70 g/ha: 70 g ai/ha; for pest or weed control at 140 g/ha: 140 g ai/ha
In short: as §1

[3] = ABUTH: velvetleaf (Abutilon theophrasti), read-out: Visual Growth Reduction (%) 14 Days After Application ABUTH
[4] = AMARE: redroot pigweed (Amaranthus retroflexus), read-out: Visual Growth Reduction (%) 14 Days After Application AMARE
[5] = BRSNN: oilseed rape, canola (Brassica napus), read-out: Visual Growth Reduction (%) 14 Days After Application BRSNN
[6] = CHEAL: lambsquarters (Chenopodium album), read-out: Visual Growth Reduction (%) 14 Days After Application CHEAL
[7] = EPHHL: wild poinsettia (Euphorbia heterophylla), read-out: Visual Growth Reduction (%) 14 Days After Application EPHHL
[8] = HELAN: sunflower (Helianthus annuus), read-out: Visual Growth Reduction (%) 14 Days After Application HELAN
[9] = barnyardgrass (Echinochloa crus-galli), read-out: Visual Growth Reduction (%) 14 Days After Application, ECHCG
[10] = giant foxtail (Setaria faberi), read-out: Visual Growth Reduction (%) 14 Days After Application, SETFA
[11] = maize, corn (Zea mays), read-out: Visual Growth Reduction (%) 14 Days After Application, ZEAMX
[12] = rice (Oryza sativa), read-out: Visual Growth Reduction (%) 14 Days After Application, ORYSA
[13] = wheat, spring (Triticum aestivum), read-out: Visual Growth Reduction (%) 14 Days After Application, TRZAS
[14] = yellow nutsedge (Cyperus esculentus), read-out: Visual Growth Reduction (%) 14 Days After Application, CYPES

SMILES: COc1c(N)nc(-c2ccc(Cl)c3c2OC(F)(F)O3)nc1C(=O)O [Compound 96]
- pest or weed control at 35 g/ha [1, 3]: 75 to 84%
- pest or weed control at 70 g/ha [1, 3]: 60 to 74%
- pest or weed control at 140 g/ha [1, 3]: 85 to 94%
- pest or weed control at 35 g/ha [1, 4]: 95 to 100%
- pest or weed control at 70 g/ha [1, 4]: 95 to 100%
- pest or weed control at 140 g/ha [1, 4]: 95 to 100%
- pest or weed control at 35 g/ha [1, 5]: 0 to 29%
- pest or weed control at 70 g/ha [1, 5]: 75 to 84%
- pest or weed control at 140 g/ha [1, 5]: 85 to 94%
- pest or weed control at 35 g/ha [1, 6]: 95 to 100%
- pest or weed control at 70 g/ha [1, 6]: 95 to 100%
- pest or weed control at 140 g/ha [1, 6]: 95 to 100%
- pest or weed control at 35 g/ha [1, 7]: 0 to 29%
- pest or weed control at 70 g/ha [1, 7]: 0 to 29%
- pest or weed control at 140 g/ha [1, 7]: 0 to 29%
- pest or weed control at 35 g/ha [1, 8]: 95 to 100%
- pest or weed control at 70 g/ha [1, 8]: 95 to 100%
- pest or weed control at 140 g/ha [1, 8]: 95 to 100%
- pest or weed control at 35 g/ha [2, 9]: 0 to 29%
- pest or weed control at 70 g/ha [2, 9]: 0 to 29%
- pest or weed control at 140 g/ha [2, 9]: 0 to 29%
- pest or weed control at 35 g/ha [2, 10]: 0 to 29%
- pest or weed control at 70 g/ha [2, 10]: 0 to 29%
- pest or weed control at 140 g/ha [2, 10]: 0 to 29%
- pest or weed control at 35 g/ha [2, 11]: 30 to 44%
- pest or weed control at 70 g/ha [2, 11]: 60 to 74%
- pest or weed control at 140 g/ha [2, 11]: 60 to 74%
- pest or weed control at 35 g/ha [2, 12]: 0 to 29%
- pest or weed control at 70 g/ha [2, 12]: 0 to 29%
- pest or weed control at 140 g/ha [2, 12]: 0 to 29%
- pest or weed control at 35 g/ha [2, 13]: 0 to 29%
- pest or weed control at 70 g/ha [2, 13]: 30 to 44%
- pest or weed control at 140 g/ha [2, 13]: 45 to 59%
- pest or weed control at 35 g/ha [2, 14]: 0 to 29%
- pest or weed control at 70 g/ha [2, 14]: 0 to 29%
- pest or weed control at 140 g/ha [2, 14]: 0 to 29%
